Measured values from patent US20260191998A1, “INDOLE PHTHALOCYANINE COMPOUND, PREPARATION METHOD THEREFOR, AND USE THEREOF IN TUMOR DIAGNOSIS IMAGING” (JIANGSU YAHONG MEDITECH CO., LTD., priority 2022, published 2026).
Structures can show the parent of a compound that is named as a salt.

Test: UV-VIS absorption spectra (optical property test)
Format: physicochemical
Conditions: 10 μM, DMSO solution; for Absorbance × 10^4: at maximum absorption peak
Description: The UV-VIS absorption spectra of the compounds (10 μM, DMSO solution) were detected using Shimadzu UV2600 spectrophotometer, and the maximum absorption peak and absorbance of each compound were obtained.

SMILES | Absorbance × 10^4 | Absorption peak [nm]
CC1(C)C(/C=C/C2=C(Cl)C(=C/C=C3/N(CCCCCC(=O)Nc4ccccc4)c4ccccc4C3(C)C)/CCC2)=[N+](CCCCCC(=O)O)c2ccccc21 [Example 27A, 1-(5-carboxypentyl)-2-((E)-2-((E)-2-chloro-3-(2-((E)-3,3-dimethyl-1-(6-oxo-6-(phenylamino)hexyl)indolin-2-ylidene)ethenyl)cyclohex-1-en-1-yl)ethenyl)-3,3-dimethyl-3H-indol-1-ium 2,2,2-trifluoroacetate] | 2.29 | 796.5
CC[N+]1=C(/C=C/C2=C(Cl)C(=C/C=C3/N(CCCCCC(=O)Oc4ccccc4)c4ccccc4C3(C)C)/C[N+](C)(C)C2)C(C)(C)c2ccccc21 [Example 28] | 1.856 | 766
CC[N+]1=C(/C=C/C2=C(Cl)C(=C/C=C3/N(CCOCCCCCC(=O)Oc4ccccc4)c4ccccc4C3(C)C)/CCC2)C(C)(C)c2ccccc21 [Example 35, 2-((E)-2-((E)-2-chloro-3-(2-((E)-3,3-dimethyl-1-(2-((6-oxo-6-phenoxyhexyl)oxy)ethyl)indolin-2-ylidene)ethenyl)cyclohex-1-en-1-yl)ethenyl)-1-ethyl-3,3-dimethyl-3H-indol-1-ium 2,2,2-trifluoroacetate] | 2.21 | 794.5
CC[N+]1=C(/C=C/C2=C(Cl)C(=C/C=C3/N(CCOCCCC(=O)Oc4ccccc4)c4ccccc4C3(C)C)/CCC2)C(C)(C)c2ccccc21 [Example 36, 2-((E)-2-((E)-2-chloro-3-(2-((E)-3,3-dimethyl-1-(2-(4-oxo-4-phenoxybutoxy)ethyl)indolin-2-ylidene)ethenyl)cyclohex-1-en-1-yl)ethenyl)-1-ethyl-3,3-dimethyl-3H-indol-1-ium 2,2,2-trifluoroacetate] | 3.368 | 795.5
CN1C(=O)/C(=C\C2=C(Cl)C(=C/C=C3/N(CCCCC(=O)Oc4ccccc4)c4ccccc4C3(C)C)/C[N+](C)(C)C2)c2ccccc21 [Example 38] | 0.364 | 584
COc1ccc2c(c1)C(C)(C)C(/C=C/C1=C(Cl)C(=C/C=C3/N(CCCCCC(=O)Oc4ccccc4)c4ccc(OC)cc4C3(C)C)/CCC1)=[N+]2C [Example 47, 2-((E)-2-((E)-2-chloro-3-(2-((E)-5-methoxy-3,3-dimethyl-1-(6-oxo-6-phenoxyhexyl)indolin-2-ylidene)ethenyl)cyclohex-1-en-1-yl)ethenyl)-5-methoxy-1,3,3-trimethyl-3H-indol-1-ium] | 2 | –
CC1(C)C(/C=C/C2=C(Cl)C(=C/C=C3/N(CCCCCC(=O)O)c4ccccc4C3(C)C)/CCC2)=[N+](CCO)c2ccccc21 [Example 49, 2-((E)-2-((E)-3-(2-((E)-1-(5-carboxypentyl)-3,3-dimethylindolin-2-ylidene)ethenyl)-2-chlorocyclohex-1-en-1-yl)ethenyl)-1-(2-hydroxyethyl)-3,3-dimethyl-3H-indol-1-ium Chloride] | 2.3 | –
CN(C)C1CC(/C=C/C2=[N+](C)c3ccccc3C2(C)C)=C(Cl)C(=C/C=C2/N(CCCCCC(=O)Oc3ccccc3)c3ccccc3C2(C)C)/C1 (stereo not shown) [Example 50, 2-((E)-2-((E)-2-chloro-3-(2-((E)-3,3-dimethyl-1-(6-oxo-6-phenoxyhexyl)indolin-2-ylidene)ethenyl)-5-(dimethylamino)cyclohex-1-en-1-yl)ethenyl)-1,3,3-trimethyl-3H-indol-1-ium Formate] | 1.97 | –
C[N+]1=C(/C=C/C2=C(Cl)C(=C/C=C3/N(CCOCCOCCC(=O)Oc4ccccc4)c4ccccc4C3(C)C)/CCC2)C(C)(C)c2ccccc21 [Example 51, 2-((E)-2-((E)-2-chloro-3-(2-((E)-3,3-dimethyl-1-(2-(2-(3-oxo-3-phenoxypropoxy)ethoxy)ethyl)indolin-2-ylidene)ethenyl)cyclohex-1-en-1-yl)ethenyl)-1,3,3-trimethyl-3H-indol-1-ium Formate] | 1.9 | –
C[N+]1=C(/C=C/C2=C(Cl)C(=C/C=C3/N(CCOCCC(=O)Oc4ccccc4)c4ccccc4C3(C)C)/CCC2)C(C)(C)c2ccccc21 [Example 52, 2-((E)-2-((E)-2-chloro-3-(2-((E)-3,3-dimethyl-1-(2-(3-oxo-3-phenoxypropoxy)ethyl)indolin-2-ylidene)ethenyl)cyclohex-1-en-1-yl)ethenyl)-1,3,3-trimethyl-3H-indol-1-ium Chloride] | 2.14 | –
C[N+]1=C(/C=C/C2=C(Cl)C(=C/C=C3/N(CCOCCOCCOCc4ccccc4)c4ccccc4C3(C)C)/CC2)C(C)(C)c2ccccc21 [Example 55, 2-((E)-2-((E)-3-(2-((E)-1-(2-(2-(2-(benzyloxy)ethoxy)ethoxy)ethyl)-3,3-dimethylindolin-2-ylidene)ethenyl)-2-chlorocyclopent-1-en-1-yl)ethenyl)-1,3,3-trimethyl-3H-indol-1-ium Formate] | 3.48 | –

Continued, in another order:

Absorbance × 10^4 | SMILES | Absorption peak [nm]
2.118 | CC[N+]1=C(/C=C/C2=C(Cl)C(=C/C=C3/N(CCOCCCCC(=O)Oc4ccccc4)c4ccccc4C3(C)C)/CCC2)C(C)(C)c2ccccc21 [Example 37A, 2-((E)-2-((E)-2-chloro-3-(2-((E)-3,3-dimethyl-1-(2-((5-oxo-5-phenoxypentyl)oxy)ethyl)indolin-2-ylidene)ethenyl)cyclohex-1-en-1-yl)ethenyl)-1-ethyl-3,3-dimethyl-3H-indol-1-ium 2,2,2-trifluoroacetate] | 794.5
0.93 | CC[N+]1=C(/C=C/C2=C(Cl)C(=C/C=C3/N(CCCCCC(=O)Oc4ccccc4)c4ccccc4C3(C)C)/CCC2)C(C)(C)c2cc(S(C)(=O)=O)ccc21 [Example 40, 2-((E)-2-((E)-2-chloro-3-(2-((E)-3,3-dimethyl-1-(6-oxo-6-phenoxyhexyl)indolin-2-ylidene)ethenyl)cyclohex-1-en-1-yl)ethenyl)-1-ethyl-3,3-dimethyl-5-(methylsulfonyl)-3H-indol-1-ium Chloride] | –
2.02 | CC1(C)C(/C=C/C2=C(Cl)C(=C/C=C3/N(CCCCCC(=O)Oc4ccccc4)c4ccccc4C3(C)C)/CCC2)=[N+](CCO)c2ccccc21 [Example 48, 2-((E)-2-((E)-2-chloro-3-(2-((E)-3,3-dimethyl-1-(6-oxo-6-phenoxyhexyl)indolin-2-ylidene)ethenyl)cyclohex-1-en-1-yl)ethenyl)-1-(2-hydroxyethyl)-3,3-dimethyl-3H-indol-1-ium Formate] | –
0.6 | C[n+]1cccc2c1N=C(/C=C/C1=C(Cl)C(=C/C=C3/N(CCCCCC(=O)Oc4ccccc4)c4ccccc4C3(C)C)/CCC1)C2(C)C [Example 53, 2-((E)-2-((E)-2-chloro-3-(2-((E)-3,3-dimethyl-1-(6-oxo-6-phenoxyhexyl)indolin-2-ylidene)ethenyl)cyclohex-1-en-1-yl)ethenyl)-3,3,7-trimethyl-3H-pyrrolo[2,3-b]pyridin-7-ium 2,2,2-trifluoroacetate] | –
2.57 | CC[N+]1=C(/C=C/C2=C(Br)C(=C/C=C3/N(CCCCCC(=O)Oc4ccccc4)c4ccccc4C3(C)C)/CCC2)C(C)(C)c2ccccc21 [Example 54, 2-((E)-2-((E)-2-bromo-3-(2-((E)-3,3-dimethyl-1-(6-oxo-6-phenoxyhexyl)indolin-2-ylidene)ethenyl)cyclohex-1-en-1-yl)ethenyl)-1-ethyl-3,3-dimethyl-3H-indol-1-ium Formate] | –
